B1: Excitatory amino acid transporter 2 (Rattus norvegicus), P31596 (protein)
chain: MASTEGANNMPKQVEVRMHDSHLSSEEPKHRNLGMRMCDKLGKNLLLSLTVFGVILGAVCGGLLRLAAPIHPDVVMLIAFPGDILMRMLKMLILPLIISSLITGLSGLDAKASGRLGTRAMVYYMSTTIIAAVLGVILVLAIHPGNPKLKKQLGPGKKNDEVSSLDAFLDLIRNLFPENLVQACFQQIQTVTKKVLVAPPSEEANTTKAVISLLNETMNEAPEETKIVIKKGLEFKDGMNVLGLIGFFIAFGIAMGKMGEQAKLMVEFFNILNEIVMKLVIMIMWYSPLGIACLICGKIIAIKDLEVVARQLGMYMITVIVGLIIHGGIFLPLIYFVVTRKNPFSFFAGIFQAWITALGTASSAGTLPVTFRCLEDNLGIDKRVTRFVLPVGATINMDGTALYEAVAAIFIAQMNGVILDGGQIVTVSLTATLASIGAASIPSAGLVTMLLILTAVGLPTEDISLLVAVDWLLDRMRTSVNVVGDSFGAGIVYHLSKSELDTIDSQHRMHEDIEMTKTQSVYDDTKNHRESNSNQCVYAAHNSVVIDECKVTLAANGKSADCSVEEEPWKREK

Legend:
[1] = target: Excitatory amino acid transporter 2 (Rattus norvegicus) (UniProt P31596); experiment: Attenuation of the sodium-dependent uptake of [3H]D-aspartate into synaptosomes prepared from rat forebrain at 250 uM.; assay type: subcellular; details: Brain
[2] = target: Excitatory amino acid transporter 2 (Rattus norvegicus) (UniProt P31596); experiment: Tested for the ability to attenuate the sodium-dependent uptake of [3H]D-aspartate (5 uM) into synaptosomes prepared from rat forebrain at 25 uM; assay type: subcellular; details: Brain
[3] = The compound was tested for binding affinity towards Excitatory amino acid receptors of rat brain synaptosomes; IE means ineffective; assay type: subcellular
[4] = organism: Rattus norvegicus; experiment: Tested for the competitive inhibitory activity against D-aspartate transport in rat synaptosomes; assay type: functional, Brain
[5] = compound: O=C(O)[C@@H]1CN[C@@H](C(=O)O)C1; experiment: Tested for the competitive inhibitory activity against L-glutamate transport in rat synaptosomes; assay type: subcellular; details: Brain

Row | Molecule | Control [1] [%] | Control [2] [%] | further results
1 | C=C(C)[C@H]1CN[C@H](C(=O)O)[C@H]1CC(=O)O | 39 | – | –
2 | CCOCC1[C@H](C(=O)O)CN[C@H]1C(=O)O (stereo partly drawn) | 55 | – | –
3 | N[C@@H](CCC(=O)O)C(=O)O | – | 40 | –
4 | O=C(O)CC1[C@H](C(=O)O)CN[C@H]1C(=O)O (stereo partly drawn) | 95 | – | –
5 | O=C(O)C[C@@H]1CN[C@H](C(=O)O)C1 | 74 | – | –
6 | O=C(O)C[C@H]1CCN[C@@H]1C(=O)O | 74 | – | –
7 | CC(C)[C@H]1CN[C@H](C(=O)O)[C@H]1CC(=O)O (single isomer, unassigned) | 25 | 83 | –
8 | O=C(O)[C@@H]1CN[C@@H](C(=O)O)C1 (stereo in doubt; form 1) [listing 1 of 2 here] | – | – | Ki [3]: Ineffective; Ki [4]: 1300 nM
9 | O=C(O)[C@@H]1CCN[C@H]1C(=O)O (stereo in doubt; form 1) | 81 | – | –
10 | O=C(O)[C@@H]1CN[C@@H](C(=O)O)C1 (stereo in doubt; form 1) [listing 2 of 2 here] | 0 | 18 | –
11 | O=C(O)[C@@H]1CN[C@H](C(=O)O)C1 (stereo in doubt; form 1) | 105 | – | –
12 | O=C(O)[C@@H]1CN[C@H]1C(=O)O (stereo in doubt; form 1) | 109 | – | –
13 | O=C(O)[C@H]1NCC[C@H]1C(=O)O (stereo in doubt; form 1) | 38 | 94 | –
14 | O=C(O)[C@H]1NC[C@H]1C(=O)O (stereo in doubt; form 1) | 53 | 96 | –
15 | O=C(O)[C@@H]1CCN[C@H]1C(=O)O (stereo in doubt; form 2) | 107 | – | –
16 | O=C(O)[C@@H]1CN[C@@H](C(=O)O)C1 (stereo in doubt; form 2) | 54 | 88 | –
17 | O=C(O)[C@@H]1CN[C@H](C(=O)O)C1 (stereo in doubt; form 2) | 36 | 82 | –
18 | O=C(O)[C@@H]1CN[C@H]1C(=O)O (stereo in doubt; form 2) | 100 | – | –
19 | O=C(O)[C@H]1NCC[C@H]1C(=O)O (stereo in doubt; form 2) | 108 | – | –
20 | O=C(O)[C@H]1NC[C@H]1C(=O)O (stereo in doubt; form 2) | 98 | – | –
21 | B1 | – | – | Km [5]: 3 µM

From ChEMBL document CHEMBL1149969, “Conformationally restricted inhibitors of the high affinity -glutamate transporter” (Bioorg Med Chem Lett, 1993)
